In ChEMBL document CHEMBL1133109, “Design, synthesis, and pharmacological characterization of 4-[4, 4-dimethyl-3-(4-hydroxybutyl)-5-oxo-2-thioxo-1-imidazolidinyl]- 2-iodobenzonitrile as a high-affinity nonsteroidal androgen receptor ligand” (J Med Chem, 2000):

Biological target: T1, Androgen receptor (Rattus norvegicus, UniProt P15207)
T1 sequence (P15207 whole entry): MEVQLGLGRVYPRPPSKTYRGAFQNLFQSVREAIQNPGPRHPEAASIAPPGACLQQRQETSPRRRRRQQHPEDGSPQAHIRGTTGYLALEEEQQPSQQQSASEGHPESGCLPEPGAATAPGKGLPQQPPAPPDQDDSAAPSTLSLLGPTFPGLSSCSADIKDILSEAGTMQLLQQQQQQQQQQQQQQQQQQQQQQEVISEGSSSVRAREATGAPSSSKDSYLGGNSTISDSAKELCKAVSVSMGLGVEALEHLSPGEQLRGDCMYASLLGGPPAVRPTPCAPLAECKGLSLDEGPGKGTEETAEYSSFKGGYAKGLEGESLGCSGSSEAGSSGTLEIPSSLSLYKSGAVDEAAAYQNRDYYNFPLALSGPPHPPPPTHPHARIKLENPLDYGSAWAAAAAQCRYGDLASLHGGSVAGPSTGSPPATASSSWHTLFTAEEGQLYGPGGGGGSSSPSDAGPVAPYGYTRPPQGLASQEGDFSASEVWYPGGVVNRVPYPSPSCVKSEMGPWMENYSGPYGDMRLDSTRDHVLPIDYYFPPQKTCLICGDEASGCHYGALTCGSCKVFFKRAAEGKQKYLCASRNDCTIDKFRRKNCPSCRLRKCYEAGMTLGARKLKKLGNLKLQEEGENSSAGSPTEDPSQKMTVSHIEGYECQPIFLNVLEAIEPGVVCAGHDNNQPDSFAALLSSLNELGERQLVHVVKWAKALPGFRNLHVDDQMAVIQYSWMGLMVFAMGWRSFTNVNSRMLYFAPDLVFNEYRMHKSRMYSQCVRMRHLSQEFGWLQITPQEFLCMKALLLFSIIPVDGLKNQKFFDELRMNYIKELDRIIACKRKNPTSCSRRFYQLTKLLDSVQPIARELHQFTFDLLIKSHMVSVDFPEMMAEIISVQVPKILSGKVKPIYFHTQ
Description: Inhibitory constant against rat prostate cytosol androgen receptor using [3H]mibolerone

Q: How did the Ki turn out when `C[C@@H]1CC2=CC(=O)CC[C@@H]2[C@H]2CC[C@@]3(C)[C@@H](CC[C@]3(C)O)[C@@H]21` [MIBOLERONE] was run?
A: 0.75 nM

Q: For `CC1(C)C(=O)N(c2ccc(C#N)c(I)c2)C(=S)N1CCCCO`, which Ki is on record?
A: 0.71 nM

Q: For `CC1(C)C(=O)N(c2ccc(C#N)c(C(F)(F)F)c2)C(=S)N1CCCCO`, which Ki is on record?
A: 2.23 nM
